Results: US20240158446A1, “CYCLIC COMPOUND HAVING SELECTIVE INHIBITORY ACTION ON KRAS OVER HRAS AND NRAS” (CHUGAI SEIYAKU KABUSHIKI KAISHA, priority 2021, published 2024)

Assays:
[1] = target: GDP-bound NRAS wild-type protein (Homo sapiens, UniProt P01111); test: Binding to NRAS by surface plasmon resonance (SPR), Single Cycle Kinetics; conditions: SPR, GDP-bound NRAS wild-type protein vs GDP-bound KRAS wild-type protein
[2] = target: GDP-bound HRAS wild-type protein (Homo sapiens, UniProt P01112); test: Binding to HRAS by surface plasmon resonance (SPR), Single Cycle Kinetics; conditions: SPR, GDP-bound HRAS wild-type protein vs GDP-bound KRAS wild-type protein
Sequence of GDP-bound HRAS wild-type protein (P01112 whole entry): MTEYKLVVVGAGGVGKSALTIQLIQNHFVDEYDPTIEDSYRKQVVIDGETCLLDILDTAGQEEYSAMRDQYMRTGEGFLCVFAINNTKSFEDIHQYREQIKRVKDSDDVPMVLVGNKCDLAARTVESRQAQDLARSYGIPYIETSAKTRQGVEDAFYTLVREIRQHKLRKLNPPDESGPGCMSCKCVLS

Sequence of GDP-bound NRAS wild-type protein (P01111 whole entry): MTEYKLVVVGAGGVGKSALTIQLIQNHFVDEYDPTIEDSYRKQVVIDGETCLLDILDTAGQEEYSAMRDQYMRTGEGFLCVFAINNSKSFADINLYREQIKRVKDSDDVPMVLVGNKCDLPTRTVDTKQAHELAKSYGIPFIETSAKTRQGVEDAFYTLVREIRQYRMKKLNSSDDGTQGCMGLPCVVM

Compound | NRAS/KRAS (ratio of KD value with respect to NRAS to KD value with respect to KRAS) [1] | HRAS/KRAS (ratio of KD value with respect to HRAS to KD value with respect to KRAS) [2] | NRAS/KRAS (ratio of KD value for NRAS to KD value for KRAS) [1] | HRAS/KRAS (ratio of KD value for HRAS to KD value for KRAS) [2]
CCO[C@@H]1C[C@H]2C(=O)NC3(CCC3)C(=O)N(C)[C@@H](C3CCCC3)C(=O)N(CCc3ccccc3)[C@H](C(=O)N3CCOCC3)CC(=O)N(C)[C@@H](CC(C)C)C(=O)N[C@@H]([C@@H](C)CC)C(=O)N(C)CC(=O)N(C)[C@H]3CCCCCN(C3=O)[C@@H](Cc3ccc(C(F)(F)F)cc3)C(=O)N(C)CC(=O)N[C@@H](CCc3cc(F)c(C(F)(F)F)c(F)c3)C(=O)N2C1 [PP0642] | B (a compound having 3 or more and less than 10 is denoted as B) | B (a compound having 3 or more and less than 10 is denoted as B) | – | –
CCCN1C(=O)[C@H](C2CCCC2)N(C)C(=O)C2(CCC2)NC(=O)[C@@H]2C[C@@H](OCC)CN2C(=O)[C@H](CCc2cc(F)c(C(F)(F)F)c(F)c2)NC(=O)CN(C)C(=O)[C@H](Cc2ccc(C(F)(F)F)cc2)N2CCCC[C@@H](C2=O)N(C)C(=O)CN(C)C(=O)[C@H]([C@@H](C)CC)NC(=O)[C@H](CC)N(C)C(=O)C[C@H]1C(=O)N(C)C [PP0644] | C (A compound having a KD ratio of 0.1 or more and less than 3 is denoted as C) | B (a compound having 3 or more and less than 10 is denoted as B) | – | –
CC[C@H](C)[C@@H]1NC(=O)[C@H](CC)N(C)C(=O)C[C@@H](C(=O)N(C)C)N(C)C(=O)[C@H](C2CCCC2)N(C)C(=O)C2(CCC2)NC(=O)[C@@H]2CCN2C(=O)[C@H](CCc2cc(F)c(C(F)(F)F)c(F)c2)NC(=O)CN(C)C(=O)[C@H](Cc2ccc(C(F)(F)F)cc2)N2CCCCC[C@@H](C2=O)N(C)C(=O)CN(C)C1=O [PP0654] | B (a compound having 3 or more and less than 10 is denoted as B) | B (a compound having 3 or more and less than 10 is denoted as B) | – | –
CCO[C@@H]1C[C@H]2C(=O)NC3(CCC3)C(=O)N(C)[C@@H](C3CCCC3)C(=O)N(C)[C@H](C(=O)N(C)C)CC(=O)N(C)[C@@H](CC3CCCCC3)C(=O)N[C@@H]([C@@H](C)CC)C(=O)N(C)CC(=O)N(C)[C@H]3CCCCCN(C3=O)[C@@H](Cc3ccc(C(F)(F)F)cc3)C(=O)N(C)CC(=O)N[C@@H](CCc3cc(F)c(C(F)(F)F)c(F)c3)C(=O)N2C1 [PP0671] | B (a compound having 3 or more and less than 10 is denoted as B) | B (a compound having 3 or more and less than 10 is denoted as B) | – | –
CCO[C@@H]1C[C@H]2C(=O)NC3(CCC3)C(=O)N(C)[C@@H](C3CCCC3)C(=O)N(C)[C@H](C(=O)N(C)C)CC(=O)N(C)[C@@H](CCOC)C(=O)N[C@@H]([C@@H](C)CC)C(=O)N(C)CC(=O)N(C)[C@H]3CCCCCN(C3=O)[C@@H](Cc3ccc(C(F)(F)F)cc3)C(=O)N(C)CC(=O)N[C@@H](CCc3cc(F)c(C(F)(F)F)c(F)c3)C(=O)N2C1 [PP0675] | B (a compound having 3 or more and less than 10 is denoted as B) | B (a compound having 3 or more and less than 10 is denoted as B) | – | –
CCO[C@@H]1C[C@H]2C(=O)NC3(CCC3)C(=O)N(C)[C@@H](C3CCCC3)C(=O)N(C)[C@H](C(=O)N3CCOCC3)CC(=O)N(C)[C@@H](CC3CC3)C(=O)N[C@@H]([C@@H](C)CC)C(=O)N(C)CC(=O)N(C)[C@H]3CCCCCN(C3=O)[C@@H](Cc3ccc(C(F)(F)F)cc3)C(=O)N(C)CC(=O)N[C@@H](CCc3cc(F)c(C(F)(F)F)c(F)c3)C(=O)N2C1 [PP0682] | B (a compound having 3 or more and less than 10 is denoted as B) | B (a compound having 3 or more and less than 10 is denoted as B) | – | –
CCO[C@@H]1C[C@H]2C(=O)NC3(CCC3)C(=O)N(C)[C@@H](C3CCCC3)C(=O)N(C)[C@H](C(=O)N3CCOCC3)CC(=O)N(C)[C@@H](CC3CCC3)C(=O)N[C@@H]([C@@H](C)CC)C(=O)N(C)CC(=O)N(C)[C@H]3CCCCCN(C3=O)[C@@H](Cc3ccc(C(F)(F)F)cc3)C(=O)N(C)CC(=O)N[C@@H](CCc3cc(F)c(C(F)(F)F)c(F)c3)C(=O)N2C1 [PP0683] | B (a compound having 3 or more and less than 10 is denoted as B) | B (a compound having 3 or more and less than 10 is denoted as B) | – | –
CCO[C@@H]1C[C@H]2C(=O)NC3(CCC3)C(=O)N(C)[C@@H](C3CCCC3)C(=O)N(C)[C@H](C(=O)N3CCOCC3)CC(=O)N(C)[C@@H](CC(C)(C)C)C(=O)N[C@@H]([C@@H](C)CC)C(=O)N(C)CC(=O)N(C)[C@H]3CCCCCN(C3=O)[C@@H](Cc3ccc(C(F)(F)F)cc3)C(=O)N(C)CC(=O)N[C@@H](CCc3cc(F)c(C(F)(F)F)c(F)c3)C(=O)N2C1 [PP0684] | B (a compound having 3 or more and less than 10 is denoted as B) | B (a compound having 3 or more and less than 10 is denoted as B) | – | –
CCO[C@@H]1C[C@H]2C(=O)NC3(CCC3)C(=O)N(C)[C@@H](C3CCCC3)C(=O)N(C)[C@H](C(=O)N3CCOCC3)CC(=O)N(C)[C@@H](CC3CCCC3)C(=O)N[C@@H]([C@@H](C)CC)C(=O)N(C)CC(=O)N(C)[C@H]3CCCCCN(C3=O)[C@@H](Cc3ccc(C(F)(F)F)cc3)C(=O)N(C)CC(=O)N[C@@H](CCc3cc(F)c(C(F)(F)F)c(F)c3)C(=O)N2C1 [PP0685] | B (a compound having 3 or more and less than 10 is denoted as B) | B (a compound having 3 or more and less than 10 is denoted as B) | – | –
CCO[C@@H]1C[C@H]2C(=O)NC3(CCC3)C(=O)N(C)[C@@H](C3CCCC3)C(=O)N(C)[C@H](C(=O)N3CCOCC3)CC(=O)N(C)[C@@H](CC3CCCCC3)C(=O)N[C@@H]([C@@H](C)CC)C(=O)N(C)CC(=O)N(C)[C@H]3CCCCCN(C3=O)[C@@H](Cc3ccc(C(F)(F)F)cc3)C(=O)N(C)CC(=O)N[C@@H](CCc3cc(F)c(C(F)(F)F)c(F)c3)C(=O)N2C1 [PP0686] | B (a compound having 3 or more and less than 10 is denoted as B) | B (a compound having 3 or more and less than 10 is denoted as B) | – | –
CCO[C@@H]1C[C@H]2C(=O)NC3(CCC3)C(=O)N(C)[C@@H](C3CCCC3)C(=O)N(C)[C@H](C(=O)N(C)C)CC(=O)N(C)[C@@H](CC3CCCC3)C(=O)N[C@@H]([C@@H](C)CC)C(=O)N(C)CC(=O)N(C)[C@H]3CCCCN(C3=O)[C@@H](Cc3ccc(C(F)(F)F)cc3)C(=O)N(C)CC(=O)N[C@@H](CCc3cc(F)c(C(F)(F)F)c(F)c3)C(=O)N2C1 [PP0700] | C (A compound having a KD ratio of 0.1 or more and less than 3 is denoted as C) | B (a compound having 3 or more and less than 10 is denoted as B) | – | –
CCO[C@@H]1C[C@H]2C(=O)NC3(CCC3)C(=O)N(C)[C@@H](C3CCCC3)C(=O)N(C)[C@H](C(=O)N(C)C)CC(=O)N(C)[C@@H](C)C(=O)N[C@@H]([C@H](C)CC)C(=O)N(C)CC(=O)N(C)[C@H]3CCCCCN(C3=O)[C@@H](Cc3ccc(C(F)(F)F)cc3)C(=O)N(C)CC(=O)N[C@@H](CCc3cc(F)c(C(F)(F)F)c(F)c3)C(=O)N2C1 [PP0729] | B (a compound having 3 or more and less than 10 is denoted as B) | B (a compound having 3 or more and less than 10 is denoted as B) | – | –
CCO[C@@H]1C[C@H]2C(=O)NC3(CCC3)C(=O)N(C)[C@@H](C3CCCC3)C(=O)N(C)[C@H](C(=O)N3CCOCC3)CC(=O)N(C)[C@@H](CC(C)C)C(=O)N[C@@H]([C@H](C)CC)C(=O)N(C)CC(=O)N(C)[C@H]3CCCCN(C3=O)[C@@H](Cc3ccc(C(F)(F)F)cc3)C(=O)N(C)CC(=O)N[C@@H](CCc3cc(F)c(C(F)(F)F)c(F)c3)C(=O)N2C1 [PP0806] | B (a compound having 3 or more and less than 10 is denoted as B) | B (a compound having 3 or more and less than 10 is denoted as B) | – | –
CCO[C@@H]1C[C@H]2C(=O)NC3(CCC3)C(=O)N(C)[C@@H](C3CCCC3)C(=O)N(C)[C@H](C(=O)N3CCOCC3)CC(=O)N(C)[C@@H](CC(C)C)C(=O)N[C@@H]([C@H](C)CC)C(=O)N(C)CC(=O)N(C)[C@H]3CCCCCN(C3=O)[C@@H](Cc3ccc(C(F)(F)F)cc3)C(=O)N(C)CC(=O)N[C@@H](CCc3cc(F)c(C(F)(F)F)c(F)c3)C(=O)N2C1 [PP0815] | – | – | B (a compound having 3 or more and less than 10 is denoted as B) | B (a compound having 3 or more and less than 10 is denoted as B)
CCO[C@@H]1C[C@H]2C(=O)NC3(CCC3)C(=O)N(C)[C@@H](C3CCCC3)C(=O)N(C)[C@H](C(=O)N3CCOCC3)CC(=O)N(C)[C@@H](CC(C)C)C(=O)N[C@@H](C3CC(F)(F)C3)C(=O)N(C)CC(=O)N(C)[C@H]3CCCCCN(C3=O)[C@@H](Cc3ccc(C(F)(F)F)cc3)C(=O)N(C)CC(=O)N[C@@H](CCc3cc(F)c(C(F)(F)F)c(F)c3)C(=O)N2C1 [PP0816] | – | – | A (a compound having 10 or more and less than 20 is denoted as A) | B (a compound having 3 or more and less than 10 is denoted as B)
CC[C@H](C)[C@@H]1NC(=O)[C@H](CC(C)C)N(C)C(=O)C[C@@H](C(=O)N2CCOCC2)N(C)C(=O)[C@H](C2CCCC2)N(C)C(=O)C2(CCC2)NC(=O)[C@]2(C)CCCN2C(=O)[C@H](CCc2cc(F)c(C(F)(F)F)c(F)c2)NC(=O)CN(C)C(=O)[C@H](Cc2ccc(C(F)(F)F)cc2)N2CCCCC[C@@H](C2=O)N(C)C(=O)CN(C)C1=O [PP0817] | – | – | A (a compound having 10 or more and less than 20 is denoted as A) | B (a compound having 3 or more and less than 10 is denoted as B)
